# Measurements: patent publication US4196217A, “Hydroxylated amines with bacteriostatic activity” (priority 1978, dated 1980)
# Where “and” joins values, the source holds several entries; their conditions need not be identical. Equal values may be shown once. Read-outs that look alike come from different tables or passages of the source.
# What was measured:
# [1] = test system: Escherichia coli; assay: bacteriostatic activity (MIC), Escherichia coli; type: cell-based; conditions: for MIC: Escherichia coli, 48 h; for M.I.C.: hydrochloride
# Method: The medium containing the solution to be tested is inoculated in the form of three single striae with a 10^-5 times dilution of a bacterial culture aged 16 to 18 hours grown in salted peptone broth at a temperature of 37° C.
# (§1) After inoculation, the media are stored at 37° C. for 48 hours, after which the bacterial growth is inspected. The MIC (minimum inhibiting concentrations) are expressed in micrograms of pure product per cubic centimeter of gelose medium required for inhibiting the culture (μg/cc). The control substance used is benzalconium chloride.
# Tests were also carried out to determine the bacteriostatic activity of other compounds according to the invention by the method described above and in comparison with known substances, in particular with benzalconium chloride (compound T in the Tables).
# [2] = test system: Pneumobacille; assay: bacteriostatic activity (MIC), Pneumobacille; type: cell-based; conditions: 48 h, Table I, 37° C., read-out: MIC
# Method: as §1, with “The medium containing the solution to be tested is inoculated in the form of three single striae with a 10^-5 times dilution of a bacterial culture aged 16 to 18 hours grown in salted peptone broth at a temperature of 37° C. After” for “After”
# [3] = test system: Proteus vulgaris; assay: bacteriostatic activity (MIC), Proteus vulgaris; type: cell-based; conditions: Proteus vulgaris, 48 h, Table I, 37° C., read-out: MIC
# Method: as §1, with “The medium containing the solution to be tested is inoculated in the form of three single striae with a 10^-5 times dilution of a bacterial culture aged 16 to 18 hours grown in salted peptone broth at a temperature of 37° C. After” for “After”
# [4] = test system: Escherichia coli; assay: bactericidal activity, Escherichia coli; type: cell-based; conditions: Table II, 2 hours contact, laboratory temperature, read-out: MIC (bactericidal activity)
# Method: (§2) Bactericidal activity is determined by the following methods: A titrate suspension of bacteria is brought into contact over a period of 2 hours at the temperature of the laboratory with increasing dilutions of the test product. The number of bacteria still alive are counted after passage through a filtering membrane.
# [5] = test system: Pseudomonas aeruginosa; assay: bactericidal activity, Pseudomonas aeruginosa; type: cell-based; conditions: Table II, 2 hours contact, laboratory temperature, read-out: MIC (bactericidal activity)
# Method: as §2
# [6] = test system: M pyogenes aureus; assay: bactericidal activity, M pyogenes aureus; type: cell-based; conditions: Table II, 2 hours contact, laboratory temperature; read-out: MIC (bactericidal activity)
# Method: as §2
# [7] = test system: spores of B. subtilis var. Niger; assay: sporostatic activity (b), porous membrane with rinses; type: cell-based
# Description: (b) A porous membrane 0.45μ thick is placed aseptically in a sterile filter support, covered with 10 cc of sterile distilled water containing 1 cc of mother solution of the product, followed by the addition of 1 cc of a suspension of spores of B. subtilis var. Niger containing approximately 40 spores. These liquids are drawn through the membrane, after which the membrane is transferred aseptically to a culture medium and placed in an oven. The operation is recommenced using up to 5 rinses of the membrane per 10 cc of sterile distilled water. The number of colonies developing is then determined.
# [8] = aggressiveness to the skin by repeated application; type: in vivo
# Description: The method used is the method described in the Official Journal of Apr. 28, 1971 for the analysis of cosmetics and beauty products, and comprises applying 0.5 cc of 2% solution over a period of 1 month to the two zones treated, one normal, the other raw, a control zone being reserved on the hindquarters of the animal.
smiles,measurement,setting,value
"CCCCCCCCCCOCC(O)CN.Cl (stereo not shown) [Compound 1, 3-decyloxy-2-hydroxy-1-aminopropane hydrochloride]",MIC,"[1]; Table I, with 20% of serum, 37° C., 48 hours, read-out: MIC",75 µg/mL
same,MIC,"[1]; Table I, without serum, 37° C., 48 hours, read-out: MIC",20 µg/mL
same,MIC,"[1]; Table VI, bacteriostase containing 20% of serum, read-out: M.I.C.",60 µg/mL
same,MIC,"[1]; Table VI, bacteriostase without serum, read-out: M.I.C.",20 µg/mL
same,M.I.C.,"[1]; Table VI, bacteriostase containing 20% of serum",80 μg/cc and 75 μg/cc and 100 μg/cc
same,M.I.C.,"[1]; Table VI, bacteriostase without serum",25 μg/cc and 40 μg/cc
same,MIC,[2]; with 20% of serum,75 µg/mL
same,MIC,[2]; without serum,35 µg/mL
same,MIC,[3]; with 20% of serum,150 µg/mL
same,MIC,[3]; without serum,40 µg/mL
same,MBC,[4],50 µg/mL
same,MBC,[5],50 µg/mL
same,MBC,[6],100 µg/mL
same,number of colonies (No = 37),[7]; 0 rinses of the membrane,3
same,number of colonies (No = 37),[7]; 1 rinse of the membrane,4
same,number of colonies (No = 37),[7]; 2 rinses of the membrane,35
same,number of colonies (No = 37),[7]; 3 rinses of the membrane,38
same,number of colonies (No = 37),[7]; 4 rinses of the membrane,48
same,number of colonies (No = 37),[7]; 5 rinses of the membrane,55
same,histological examination of skin,[8]; 0.5 cc of 2% solution over 1 month,did not reveal any significant modification
same,local tolerance (skin),"[8]; 0.5 cc of 2% solution over 1 month, normal and raw zones",Good local tolerance
same,haematological examination,[8]; blood from the ear vein on completion of the test,normal blood formula
